Test results from patent publication US7105635B2, “Cyclic beta-sheet peptides useful as apoptotic/cytotoxic cancer agents” (The University of Toledo, priority 2002, dated 2006).
“Also recorded” adds a separate entry of the source. Read-outs that look alike come from different tables or passages of the source. Positions of bridges follow the written chain, without caps; N, C: chain ends. Residues, ends and D or L forms follow the SMILES beside them. No end group written: not given here. *: point of attachment. Biotin = O=C1N[C@H]2[C@H](CS[C@H]2CCCCC(=O)*)N1

Assays:
[1] = test system: CEM cells; test: Annexin-V-FITC flow cytometry of phosphatidyl serine exposure (apoptosis), CEM cells; type: cell-based, human; conditions: 20 μM, control experiments
Procedure: FIGS. 10a–d are graphs showing comparisons of phosphatidyl serine exposure on the outer surface of CEM cells following a 2.5-hour incubation with or without 40 μM cyclized L1AD3. After incubation, cells were washed twice with cold PBS prior to adding FITC-conjugated Annexin-V. Flow cytometry using a B-D FACSCalibur was performed, and 10,000 cells were analyzed using the B-D CellQuest program. Individual cells are represented in the dot plots on the left (FIGS. 10a and 10c), and histograms of the same data are on the right (FIGS. 10b and d). Whereas untreated tumor cells show less than 6% spontaneous apoptosis (FIG. 10c, lower left quadrant), 93% of cells treated with L1AD3 undergo apoptosis after 2.5 hours (FIG. 10d, lower right quadrant).
Flow cytometry using fluorescent Annexin-V distinguishes cells with externalized phosphatidyl serine. As long as the cell's plasma membrane remains intact, fluorescent dyes such as ethidium bromide or propidium iodide are excluded. A 40 μM concentration of L1AD3 caused approximately 93% of CEM cells to become Annexin-V-positive within 2.5 hours, which is unusually short for signs of apoptosis to occur. Camptothecin, a cancer chemotherapeutic agent administered in control experiments at 20 μM, caused only 33% of the cells to appear apoptotic. […]

[2] = test system: CEM cells; test: cell permeability to ethidium bromide / propidium iodide, CEM cells; type: cell-based, human; conditions: for cell permeability to ethidium bromide or propidium iodide: CEM cells
Procedure: FIG. 11 is a graph showing changes in cell permeability to ethidium bromide following incubation with L1AD3 or with native CTX. CEM cells (10^6/ml) were incubated in quartz cuvets in a Shimidzu fluorescence spectrophotometer with 1 μg/ml ethidium bromide. Either CTX at a final concentration of 1.6 μM or L1AD3 at a final concentration of 40 μM was added, and readings were taken at 5-minute intervals, with excitation at 526 nm and emission measured at 608 nm.
Flow cytometry using fluorescent Annexin-V distinguishes cells with externalized phosphatidyl serine. As long as the cell's plasma membrane remains intact, fluorescent dyes such as ethidium bromide or propidium iodide are excluded. A 40 μM concentration of L1AD3 caused approximately 93% of CEM cells to become Annexin-V-positive within 2.5 hours, which is unusually short for signs of apoptosis to occur. Camptothecin, a cancer chemotherapeutic agent administered in control experiments at 20 μM, caused only 33% of the cells to appear apoptotic.
Since whole CTX can rapidly permeabilize leukemic T-lymphocytes, separate experiments using a fluorescence spectrophotometer were applied to examine changes in plasma membrane permeability to ethidium bromide following exposure of CEM cells either to L1AD3 or to CTX.

[3] = test system: CEM cells; test: [3H]-thymidine incorporation into DNA of CEM cells; type: cell-based, human; conditions: for EC50: CEM cells, FIG. 8, read-out: EC50, inhibition of thymidine incorporation into DNA
Procedure: FIG. 8 is a graph showing percent inhibition of thymidine incorporation as a function of peptide concentration. Each well of a microtiter plate received 200,000 CEM cells in log phase of growth, suspended in 50 μl complete medium. The same volume of diluted peptide, either linear or cyclized, was added to achieve the final concentrations shown. After a 1 -hour incubation at 37 degrees C., 1 μCi of [^3H]-thymidine in 25 μl medium was added, and the plates were incubated another 3 hours prior to harvesting. Control cells were incubated without either peptide, but with the same volume of medium.
The peptide called L1AD3, Seq. ID No. 1, prevents the proliferation of cancerous human T-lymphocytes (CEM cell line) by inhibiting incorporation of thymidine into DNA.
(§1) The L1AD3 peptide stops tumor cell division in both Jurkat and CEM cells with an EC50 of approximately 5 μM, as shown in FIG. 8. This is indicated by the inhibition of thymidine incorporation into DNA. […] In contrast to CTX, which rapidly depolarized skeletal muscle (Dufton and Hider, 1991), and which at 1 μM concentrations causes cessation of beating of embryonic chicken heart cells within 5–10 seconds, the L1AD3 peptide at 40 μM concentrations has no effect upon the beating of heart cells over 2 hours of observation. Therefore, it is believed that the L1AD3 peptide, along with the other seven peptides, is not harmful to the heart, in contrast to native CTX.

[4] = test system: Jurkat cells; test: thymidine incorporation into DNA of Jurkat cells; type: cell-based, human; conditions: read-out: EC50, inhibition of thymidine incorporation into DNA
Procedure: as §1

[5] = test system: normal human cells; test: permeabilization of normal human cells (propidium iodide, ethidium bromide, trypan blue); type: cell-based; conditions: ethidium bromide or trypan blue
Excerpt: (§2) The L1AD3 peptide composition, Seq. […] It is believed that there is an absence of the L1AD3 protein receptor on the surface of normal human white blood cells, whereas the L1AD3 protein receptor target is found in the surface of leukemic T-cells.

[6] = test system: embryonic chicken heart cells; test: beating of heart cells; type: cell-based; conditions: for time to cessation of beating of heart cells: 1 μM
Procedure: as §2, §1

[7] = test system: normal human peripheral white blood cells (PBL's); test: Annexin-V binding / phosphatidyl serine externalization, normal human white blood cells; type: cell-based
[8] = test system: CEM cells
Procedure: To investigate peptide binding to cell surfaces, the peptide was modified by N-terminal biotinylation. […] A biotin-avidin sorbant assay, similar to an ELISA procedure was performed to measure binding. In this assay, horseradish peroxidase-conjugated avidin was employed rather than an enzyme-linked second antibody. Mouse anti-human MHC-1 (anti HLA-A,-B,-C) antibody was used to hold CEM or normal human cells to the surface of 96-well microtiter plates.
(§3) In order to investigate the nature of the binding site for L1AD3 on tumor cells, trypsin was added to the cells and subsequently quenched by adding enzyme inhibitor prior to measurements of binding, using biotinylated peptide in either the solid-phase or the fluorescent assay described above.

[9] = test system: CEM cells; test: luciferin/luciferase bioluminescence assay of total ATP in CEM cells; type: cell-based, human
Procedure: FIG. 9 is a graph showing the amounts of total ATP present in cell lysates following incubation of CEM cells with peptide analogs. Cyclized peptides were added at double their final concentration, which was 20 μM, to triplicate wells of a black 96-well reaction plate. CEM cells (50,000 per well) were added in the same volume, and the plate was incubated 30 minutes at 37 degrees. Lysis buffer (Sigma) was added, followed by luciferin/luciferase assay buffer (Molecular Probes). The plate was sealed with a clear plastic film and read using a Packard Top-Count reader. Cells with medium only had ATP levels of 1073±160 in arbitrary luminescence units. Peptide analogs are identified by single amino acid modifications.
Changes in cellular energy levels can contribute to the process of cytotoxicity. ATP was measured using a 96-well luciferin/luciferase bioluminescence assay system and found a 60% reduction in ATP after 30 minutes' incubation of CEM cells with 20 μM L1AD3, as shown in FIG. 9. While somewhat large, this reduction of ATP is consistent with apoptosis, inasmuch as necrosis tends to occur when ATP levels drop to below 30% of control.

[10] = test system: normal human peripheral blood lymphocytes; test: biotin-avidin sorbant binding assay, normal human PBL's; conditions: with or without non-biotinylated L1AD3
Procedure: FIG. 13 is a graph showing inhibition of specific binding of biotinylated L1AD3 to normal human peripheral blood lymphocytes by non-biotinylated L1AD3, and abolition of binding by pretreatment of CEM cells with trypsin. The lower two traces in the figure were developed as described above for FIG. 12, except that the target cells were human PBL's that had been isolated about 4 hours before the assay. […] In this case, 0.0125% trypsin was incubated with adherent cells for 10 min, followed by three washes and subsequent addition of soybean trypsin inhibitor.
(§4) A biotin-avidin sorbant assay, similar to an ELISA procedure was performed to measure binding. In this assay, horseradish peroxidase-conjugated avidin was employed rather than an enzyme-linked second antibody. Mouse anti-human MHC-1 (anti HLA-A,-B,-C) antibody was used to hold CEM or normal human cells to the surface of 96-well microtiter plates.

[11] = test system: CEM cells; remark: listed apart in the source
[12] = test system: CEM cells; test: biotin-avidin sorbant binding assay, adherent CEM cells; design: species or system human; conditions: for binding after pretreatment of cells with trypsin: solid-phase assay
Procedure: CEM cells were held on the surface of 96-well plates previously coated with anti-human MHC-1 antibody (anti-HLA-A,B,C). After plates containing adherent cells were blocked with bovine albumin and washed with PBS, biotinylated L1AD3, either alone (upper trace) or in a 1:1 ratio with non-biotinylated L1AD3 (lower trace), was added to triplicate wells to achieve the indicated final concentrations. After a 1-hour incubation at 37 degrees, plates were washed three times with PBS, and avidin-HRP was added. Enzyme substrate (ABTS) was added, and color development at 415 nm was monitored using an ELISA plate reader with printed output.
The lower two traces in the figure were developed as described above for FIG. 12, except that the target cells were human PBL's that had been isolated about 4 hours before the assay. […] In this case, 0.0125% trypsin was incubated with adherent cells for 10 min, followed by three washes and subsequent addition of soybean trypsin inhibitor.
as §4, §3

[13] = test system: human leukemic T-lymphocytes; conditions: previous comparisons of native toxins (Stevens-Truss & Hinman, 1997); cited from earlier work

CC[C@@]1(O)C(=O)OCc2c1cc1n(c2=O)Cc2cc3ccccc3nc2-1 [Camptothecin]
cells apoptotic (Annexin-V) [1]: 33%
cells apoptotic (Annexin-V) ([1]; listed as camptothecin): 23%
cell permeability to ethidium bromide or propidium iodide [2]: neither L1AD3 nor camptothecin caused increases in cell permeability

CC(C)C[C@@H]1NC(=O)[C@H](CCCCN)NC(=O)[C@H](CC(N)=O)NC(=O)[C@@H](NC(=O)[C@H](CCCCN)NC(=O)[C@@H](N)CC(C)C)CSSC[C@@H](C(=O)O)NC(=O)[C@H]([C@@H](C)O)NC(=O)[C@H](CCCCN)NC(=O)[C@H](Cc2ccc(O)cc2)NC(=O)[C@H](Cc2ccccc2)NC(=O)[C@H](CC(C)C)NC(=O)[C@@H]2CCCN2C(=O)[C@H](C(C)C)NC1=O [L1AD3, Leu-Lys-Cys-Asn-Lys-Leu-Val-Pro-Leu-Phe-Tyr-Lys-Thr-Cys] (H-LKCNKLVPLFYKTC-OH; disulfide 3-14)
EC50 [3]: ~5 µM
EC50 [4]: ~5 µM
permeabilizing effect on normal human cells [5]: no permeabilizing effect
effect upon the beating of heart cells ([6]; 40 μM, 2 hours): no effect
externalization of phosphatidyl serine / Annexin-V binding in normal human white blood cells ([7]; 40 μM peptide (same concentration as CEM test)): did not induce externalization of phosphatidyl serine; also recorded: not affected above background levels
Annexin-V labelling of T-cells, B-cells and macrophages among PBL's ([7]; 1-hour incubation, double-labeled with anti CD-3, CD-19, CD-14): all were within background levels

CC(C)C[C@H](NC(=O)[C@H](CCCCN)NC(=O)[C@H](CC(N)=O)NC(=O)[C@H](CS)NC(=O)[C@H](CCCCN)NC(=O)[C@@H](N)CC(C)C)C(=O)N[C@H](C(=O)N1CCC[C@H]1C(=O)N[C@@H](CC(C)C)C(=O)N[C@@H](Cc1ccccc1)C(=O)N[C@@H](Cc1ccc(O)cc1)C(=O)N[C@@H](CCCCN)C(=O)N[C@H](C(=O)N[C@@H](CS)C(=O)O)[C@@H](C)O)C(C)C [Linear L1AD3] (H-LKCNKLVPLFYKTC-OH; N-terminus and C-terminus assumed)
EC50 of linear peptide relative to cyclized counterpart [3]: more than eight times
EC50 [3]: ~43 µM

Biotin-LKCNKLVPLFYKTC (cysteine pairing not given here) [biotinylated L1AD3]
fluorescence increase over cells not incubated with biotinylated peptide ([8]; avidin-FITC, CEM cells in suspension): 48%
binding after pretreatment of cells with trypsin ([8]; fluorescent assay): abolished binding
ability to reduce ATP levels in cancer cells [9]: retains its ability to reduce ATP levels
binding to normal human white blood cells / PBL's [10]: did not bind appreciably
other activities after biotinylation [11]: significantly diminished
binding to human cancer cells [12]: bound human cancer cells; also recorded: preserves its ability to bind cancer cells
Kd ([12]; saturable binding, read-out: apparent KD of binding to CEM cells): ~6 µM
binding after pretreatment of cells with trypsin [12]: abolished
binding after pretreatment of cells with trypsin ([12]; listed as biotinylated peptide): abolished binding

LKCNKLVPLFYKTCPAGKNLCYKMFMVATPKVPVKRGCIDVCPKSSLL VKYVCCNTDRCN (LKCNKLVPLFYKTCPAGKNLCYKMFMVATPKVPVKRGCIDVCPKSSLLVKYVCCNTDRCN; Naja naja atra) [CTX, parent 60-amino acid cytotoxin purified from the Taiwan cobra, Naja naja atra]
time to cessation of beating of heart cells [6]: 5 to 10 s
time to cessation of beating of heart cells ([6]; listed as “parent” cardiotoxin): 10 to 30 s
toxicity toward human leukemic T-lymphocytes [13]: highly toxic
time until cells began to admit ethidium bromide ([2]; 1.6 μM, fluorescence spectrophotometer): ≤ 15 min
time to induced permeability to propidium iodide ([2]; 10 μM, fluorescence microscopy): ≤ 30 s
cell permeability to ethidium bromide or propidium iodide [2]: rapidly became permeable
